Experimental data taken from article PMC12703938, “Positive modulation of sigma-1 receptor: a new weapon to mitigate disease progression in amyotrophic lateral sclerosis” (Translational Neurodegeneration, 2025).
Structures can show the parent of a compound that is named as a salt.

Test system: T1, sigma-1 receptor (S1R)
T1 construct: gene SIGMAR1; S1R-GFP expressed in CHO cells; with BiP
Assay: S1R/BiP dissociation assay in S1R-GFP CHO cells (GFP-Trap, BiP ELISA)
Format: cell-based

| Structure (SMILES) | IC50 [nM] |
| --- | --- |
| C[C@]12CC[C@H](O)CC1=CC[C@@H]1[C@@H]2CC[C@]2(C)C(=O)CC[C@@H]12 [DHEA] | 1170 |
